{"source": "patent US12233100B1", "about": "“Composition for improving respiratory health of companion animals” (priority 2024, dated 2025)", "test_system": "IgE", "experiment": "IgE content in the serum (ELISA)", "type": "in vivo", "settings": "positive control group, 30 mg/kg", "description": "In order to measure IgE content in the serum, enzyme-linked immunosorbent assay (ELISA) (an antigen-antibody amount measurement method) kit was used. 100 μl of each of the standard solution and the serum entered each well, was reacted at 4° C. for 10 hours using a rotary agitator and then washed 4 times with a washing solution.\nAfter completely removing the washing solution, 100 μl of a detection antibody entered each well, followed by rotational-agitation at room temperature for 1 hour and then washing the same 4 times with the washing solution. After washing, 100 μl of HRP-Streptavidin (enzyme activity and adsorption protein) solution entered each well, followed by rotational-agitation at room temperature for 45 minutes and then washing the same with 1× washing solution. Further, 100 μl of TMB One-step detection reagent entered each well, followed by rotational-agitation in a dark room for 30 minutes, and then, treatment with 50 μl of a reaction stopping reagent. Then, the absorbance was measured at […], compared to IgE standard curve to convert a content (pg/ml).", "data": [{"compound": "CC(C)(O)c1ccccc1CC[C@@H](SCC1(CC(=O)O)CC1)c1cccc(/C=C/c2ccc3ccc(Cl)cc3n2)c1", "note": "[monteluksat, montelukast]", "values": [{"measurement": "IgE content in the serum", "result": 347, "unit": "pg/mL"}]}]}
